Values joined by “and” are separate entries in the source; they are usually repeats but may differ in a detail not shown here. Equal values may be shown once.
Tests used:
[1] = biological target: T1, oestrone sulphatase (E1-STS) (Homo sapiens, UniProt P08842); assay: Inhibition of steroid sulphatase activity in placental microsomes; type: biochemical; parameters: from tissue; host or cells: human term placenta (microsomal preparation); conditions: for Placental Microcsomes % inhibition: -ve % means stimulation
T1 sequence (P08842 22-583): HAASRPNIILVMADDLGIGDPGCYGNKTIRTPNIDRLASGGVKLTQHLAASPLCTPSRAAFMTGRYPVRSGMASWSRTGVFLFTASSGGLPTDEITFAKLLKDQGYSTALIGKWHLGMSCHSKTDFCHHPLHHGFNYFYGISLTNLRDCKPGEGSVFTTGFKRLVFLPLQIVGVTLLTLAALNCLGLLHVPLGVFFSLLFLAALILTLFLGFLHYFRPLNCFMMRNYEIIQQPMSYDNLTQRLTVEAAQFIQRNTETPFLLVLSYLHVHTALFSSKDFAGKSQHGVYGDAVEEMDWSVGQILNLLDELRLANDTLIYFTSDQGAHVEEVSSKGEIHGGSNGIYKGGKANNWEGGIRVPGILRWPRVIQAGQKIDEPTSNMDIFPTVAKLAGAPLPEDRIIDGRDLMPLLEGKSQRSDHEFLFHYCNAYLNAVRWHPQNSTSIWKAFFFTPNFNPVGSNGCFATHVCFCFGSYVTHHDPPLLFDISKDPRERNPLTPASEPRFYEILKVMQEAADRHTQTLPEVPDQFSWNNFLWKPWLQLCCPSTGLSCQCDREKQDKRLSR
Method: Inhibition of Steroid Sulphatase Activity in Placental Microsomes
Sulphatase-positive human placenta from normal term pregnancies are thoroughly minced with scissors and washed once with cold phosphate buffer (pH 7.4, 50 mM) then re-suspended in cold phosphate buffer (5 ml/g tissue). Homogenisation is accomplished with an Ultra-Turrax homogeniser, using three 10 second bursts separated by 2 minute cooling periods in ice. Nuclei and cell debris are removed by centrifuging (4° C.) at 2000 g for 30 minutes and portions (2 ml) of the supernatant are stored at 20° C.
Incubations (1 ml) are carried out using a protein concentration of 100 mg/ml, substrate concentration of 20 mM [6,7-3H]oestrone-3-sulphate (specific activity 60 Ci/mmol from New England Nuclear, Boston, Mass., U.S.A.) and an incubation time of 20 minutes at 37° C. If necessary eight concentrations of compounds are employed: 0 (i.e. control); 0.05 mM; 0.1 mM; 0.2 mM; 0.4 mM; 0.6 mM; 0.8 mM; 1.0 mM. After incubation each sample is cooled and the medium (1 ml) was pipetted into separate tubes containing [14C]oestrone (7×10^3 dpm) (specific activity 97 Ci/mmol from Amersham International Radiochemical Centre, Amersham, U.K.). The mixture is shaken thoroughly for 30 seconds with toluene (5 ml). […] A portion (2 ml) of the organic phase was removed, evaporated and the 3H and 14C content of the residue determined by scintillation spectrometry. The mass of oestrone-3-sulphate hydrolysed is calculated from the 3H counts obtained (corrected for the volumes of the medium and organic phase used, and for recovery of [14C]oestrone added) and the specific activity of the substrate.

[2] = biological target: T1, oestrone sulphatase (E1-STS); assay: Inhibition of steroid sulphatase (E1-STS) activity in intact MCF-7 breast cancer cells; type: cell-based
Plate assay % inhibition = type: cell-based; conditions: -ve % means stimulation

Row | Structure (SMILES) | % Inhibition of E1-STS activity in placental microsomes ([1]; 10 μM) | % Inhibition of E1-STS activity in placental microsomes ([1]; 25 µM) [%] | % Inhibition of E1-STS activity in placental microsomes ([1]; 50 µM) [%] | % Inhibition of E1-STS activity in placental microsomes ([1]; 100 µM) [%] | % Inhibition of E1-STS activity in MCF-7 cells ([2]; 0.1 μM) | % Inhibition of E1-STS activity in MCF-7 cells ([2]; 1 μM) [%] | % Inhibition of E1-STS activity in MCF-7 cells ([2]; 10 μM) [%] | further results
1 | NS(=O)(=O)Oc1ccc(C23CC4CC(CC(c5ccc(O)cc5)(C4)C2)C3)cc1 [Compound 21, 4′-hydroxy-(1,3-adamantanediyl)diphenyl-4-O-sulphamate] | <10% | 15.9 ± 0.9 | 32.5 ± 1.1 | 60.1 ± 3.4 | <10% | 16.3 ± 1.5 | 64.1 ± 1.1 | –
2 | CN(C)S(=O)(=O)O[C@H]1CCC2C3CCc4cc(OCc5ccccc5)ccc4C3CC[C@@]21C (stereo partly shown) | – | – | – | – | – | – | – | melting point: 117 to 121 °C
3 | COc1cc2c(cc1OS(N)(=O)=O)CCC1C2CCC2(C)C1CCC2(O)Cc1ccc(C(C)(C)C)cc1 (stereo not shown) [BLE01016] | – | – | – | – | – | – | – | inhibition at 0.1 µM (Plate assay % inhibition; 0.1 μM): -14%; inhibition at 1 µM (Plate assay % inhibition; 1 μM): -10%; inhibition at 10 µM (Plate assay % inhibition; 10 μM): -3%
4 | CC1=C2CCC3c4ccc(OS(N)(=O)=O)cc4CCC3C2CC1 (stereo not shown) | – | – | – | – | – | – | – | melting point: 172 to 176 °C
5 | COc1cc2c(cc1O)CCC1C2CC[C@@]2(C)C1CC[C@@]2(O)Cc1ccc(C(C)(C)C)cc1 (stereo partly shown) [BLE01008] | – | – | – | – | – | – | – | Plate assay % inhibition (Plate assay % inhibition; 0.1 μM): −12%; Plate assay % inhibition (Plate assay % inhibition; 1 μM): −15%
6 | NS(=O)(=O)Oc1cccc(C(=O)c2cccc(OS(N)(=O)=O)c2)c1 [Compound 28, Benzophenone-3,3′-O,O-bis-sulphamate] | 51.1 ± 3.7% | 73.6 ± 1.9 | 84.1 ± 1.9 | – | 75.3 ± 0.8% | 98.4 ± 0.3 | 99.9 ± 0.1 | –
7 | CN(C)S(=O)(=O)O[C@@H]1CCC2C3CCc4cc(OCc5ccccc5)ccc4C3CC[C@@]21C (stereo partly shown) | – | – | – | – | – | – | – | melting point: 82 to 86 °C (dec.)
8 | CCCCCN(CCCCC)S(=O)(=O)O[C@@H]1CC[C@H]2[C@@H]3CCc4cc(O)ccc4[C@H]3CC[C@]12C [BLE00082, 3-Hydroxyestra-1,3,5(10)-trien-17α-O—(N,N-dipentyl)sulfamate] | – | – | – | – | – | – | – | Plate assay % inhibition (Plate assay % inhibition; 1 μM): 24%
9 | NS(=O)(=O)Oc1ccc2c(c1)C(=O)c1ccc(OS(N)(=O)=O)cc1C2=O [Compound 10, Anthraquinone-2,6-O,O-bis-sulphamate] | – | 95.7 ± 0.5 | 97.2 ± 0.3 | 97.7 ± 0.1 | 93% and 93.1 ± 2.1% | 98.6 ± 1.0 | 99.1 ± 0.1 | –
10 | C[C@]12CCC3c4ccc(OCc5ccccc5)cc4CCC3C1CC[C@H]2OS(=O)(=O)N(Cc1ccccc1)Cc1ccccc1 (stereo partly shown) | – | – | – | – | – | – | – | melting point: 115 to 116 °C
11 | C[C@]12CC[C@@H]3c4ccc(OS(N)(=O)=O)cc4CC[C@H]3[C@@H]1CC[C@@H]2O [BLE00084] | – | – | – | – | – | – | – | Plate assay % inhibition (Plate assay % inhibition; 0.1 μM): 4%; Plate assay % inhibition (Plate assay % inhibition; 10 μM): 23%
12 | NS(=O)(=O)Oc1ccc2c(c1)C(=O)c1ccc(O)cc1C2=O [Compound 11, 2-hydroxyanthraquinone-6-O-sulphamate] | 86% and 86.1 ± 0.5% | 91.2 ± 0.2 | 94.4 ± 0.5 | 95.6 ± 0.1 | 99.3 ± 0.6% | 94.5 ± 1.6 | 90.1 ± 0.8 | –
13 | CN(C)S(=O)(=O)O[C@H]1CC[C@H]2[C@@H]3CCc4cc(OS(N)(=O)=O)ccc4[C@H]3CC[C@]12C [BLE99069, 3-O-Sulfamoyl-estra-1,3,5(10)-trien-17β-O—(N,N-dimethyl)sulfamate] | – | – | – | – | – | – | – | Plate assay % inhibition (Plate assay % inhibition; 0.1 μM): 3%; Plate assay % inhibition (Plate assay % inhibition; 1 μM): 10%; Placental Microcsomes % inhibition ([1]; 10 nM): 30.3^1%; Placental Microcsomes % inhibition ([1]; 1 μM): 96.3^1%
14 | NS(=O)(=O)Oc1ccc(Sc2ccc(O)cc2)cc1 [Compound 16, 4′-hydroxy-thiodiphenyl-4-O-sulphamate] | 33.1 ± 1.7% | 49.5 ± 0.1 | 64.7 ± 0.9 | 76.8 ± 0.4 | 26.6 ± 4.3% | 83.9 ± 1.2 | 97.7 ± 0.4 | –
15 | NS(=O)(=O)Oc1ccc(C(=O)C=Cc2ccccc2)cc1 [Compound 8, Chalcone-4′-O-sulphamate] | 71.27 ± 2.42% | – | 75.79 ± 2.06 | 80.51 ± 1.87 | <10% | 33.04 ± 10.68 | 87.89 ± 2.02 | –
